In patent US6417202B1, “Pyridylpyrrole compounds useful as interleukin-and TNF antagonists” (Pfizer Inc., priority 1996, dated 2002) one finds melting point data, which are given here for 17 compounds.

The structures appear in SMILES notation.

The term melting point denotes the temperature of the solid-liquid transition. For the compound `CC(=O)c1c(-c2ccc(F)c(Cl)c2)[nH]c(-c2ccncc2)c1C` [Example 66, 3-Acetyl-2-(3-chloro-4-fluorophenyl)-4-methyl-5-(4-pyridyl)-1H-pyrrole], the melting point was in the range of 206 to 209 °C.
The compound `CSc1ccc(-c2[nH]c(-c3ccncc3)c(C)c2C(C)=O)cc1` [Example 71, 3-Acetyl-4-methyl-2-(4-methylthiophenyl)-5-(4-pyridyl)-1H-pyrrole] gave a melting point of 169 to 172 °C.
In the case of `Cc1c(-c2ccncc2)[nH]c2c1C(=O)CC(C)(C)C2` [Example 55, 4-Oxo-2-(4-pyridyl)-3,6,6-trimethyl-4,5,6,7-tetrahydro-1H-indole], the melting point was in the range of 241 to 241.5 °C.
As to `CC(=O)c1c(N2C[C@@H](C)O[C@@H](C)C2)[nH]c(-c2ccncc2)c1C` [Example 80, 3-Acetyl-2-(cis-2,6-dimethylmorpholin-4-yl)-4-methyl-5-(4-pyridyl)-1H-pyrrole], the melting point lay within 95 to 100 °C.
`CC(=O)c1c(-c2cccnc2)[nH]c(-c2ccncc2)c1C` [Example 65, 3-Acetyl-4-methyl-2-(3-pyridyl)-5-(4-pyridyl)-1H-pyrrole] yielded a melting point of 182 to 186 °C.
For the compound `Cc1c(-c2ccncc2)[nH]c2c1C(=O)CSC2` [Example 87, 3-Methyl-4-oxo-2-(4-pyridyl)-6-thia-4,5,6,7-tetrahydro-1H-indole], the melting point was in the range of 209 to 210 °C.
As for `Cc1c(-c2ccncc2)[nH]c(-c2ccncc2)c1C(=O)OC(C)C` [Example 15, 4-Methyl-3-(1-methylethoxy)carbonyl-2,5-di(4-pyridyl)-1H-pyrrole], the figure is 218 to 221 °C.
With `Cc1c(-c2ccncc2)[nH]c(-c2ccncc2)c1CO` [Example 39, 3-Hydroxymethyl-4-methyl-2,5-di(4-pyridyl)-1H-pyrrole] the figure was 258 to 261 °C; with `C=CCOC(=O)c1c(-c2ccncc2)[nH]c(-c2ccncc2)c1C` [Example 14, 3-Allyloxycarbonyl-4-methyl-2,5-di(4-pyridyl)-1H-pyrrole], 224 to 224.5 °C; with `Cc1c(-c2ccncc2)[nH]c(-c2ccncc2)c1C(=O)OCc1ccccc1` [Example 13, 3-Benzyloxycarbonyl-4-methyl-2,5-di(4-pyridyl)-1H-pyrrole], 204 to 205 °C.
As to `CC(=O)c1c([N+](=O)[O-])[nH]c(-c2ccncc2)c1C` [Example 84, 3-Acetyl-4-methyl-2-nitro-5-(4-pyridyl)-1H-pyrrole], the melting point lay within 187 to 188 °C.
Regarding `CC(=O)c1c(-c2cccc(Oc3ccc(F)cc3)c2)[nH]c(-c2ccncc2)c1C` [Example 62, 3-Acetyl-2-{3-(4-fluorophenoxy)phenyl}-4-methyl-5-(4-pyridyl)-1H-pyrrole], the melting point was 158 to 159 °C.
The compound `CCCOC(=O)c1c(-c2ccncc2)[nH]c(-c2ccncc2)c1C` [Example 17, 4-Methyl-3-propoxycarbonyl-2,5-di(4-pyridyl)-1H-pyrrole] had a melting point of 215 to 218 °C.
Regarding `COC(=O)c1c(-c2ccccc2)[nH]c(-c2ccncc2)c1C` [Example 91, Methyl 4-Methyl-2-phenyl-5-(4-pyridyl)pyrrole-3-carboxylate], the melting point was 202 to 204 °C.
`CCOC(=O)c1c(-c2ccncc2)[nH]c(-c2ccncc2)c1CC` [Example 10, 3-Ethoxycarbonyl-4-ethyl-2,5-di(4-pyridyl)-1H-pyrrole]: the melting point is 212 to 215 °C.
As for `CC(=O)c1c(-c2cccc(N)c2)[nH]c(-c2ccncc2)c1C` [Example 58, 3-Acetyl-2-(3-aminophenyl)-4-methyl-5-(4-pyridyl)-1H-pyrrole], the figure is 193 to 195 °C; as for `CC(=O)c1c(-c2ccc([S+](C)[O-])cc2)[nH]c(-c2ccncc2)c1C` (centres unmarked) [Example 75, 3-Acetyl-4-methyl-2-(4-methylsulfinylphenyl)-5-(4-pyridyl)-1H-pyrrole], 249 to 250 °C.
